# According to paper PMC4546510 (ACS chemical biology, 2015):
# Like-named read-outs stand apart in the source and are kept apart here.
# How the values were obtained:
# [1] = biological target: full-length NS3 (helicase) (Hepatitis C virus genotype 1a, UniProt P26664); type: biochemical
# [2] = system: HCVsg 1b(con1)-Rluc replicon; assay: microbe, parasite or virus in culture; type: cell-based, hepatitis C virus genotype 1b (con1); details: read-out: EC50 (concentration needed to reduce cellular HCVsg 1b(con1)-Rluc replicon content by 50%)
# Cell viability assay = type: cell-based; details: human
# [3] = system: HCVsg 1b(con1)-Rluc replicon; type: cell-based, hepatitis C virus genotype 1b; details: combined with HPI; for Volume under the synergy plot (difference from Bliss additivity): MacSynergy II, 95% confidence; for Interaction with HPI (deviation from additive effects): Prichard & Shipman definitions
# Huh7.5 cell viability = assay: Cell viability assay; type: cell-based
# HCVsg 2a(JFH1) replicon [4] = assay: HCVsg 2a; type: cell-based, hepatitis C virus genotype 2a (JFH1); details: Renilla luciferase reporter
# [5] = system: subgenomic dengue virus replicon (DENVsg 2); assay: Dengue virus subgenomic replicon assay in BHK-21 cells; type: cell-based, dengue virus strain 2; details: Renilla luciferase-tagged replicon
# HCVsg 2a(JFH1) replicon [6] = assay: Colony formation assay, Huh7.5 cells with HCVsg 2a; type: cell-based, hepatitis C virus genotype 2a; details: genotype 2a replicon, G418 selection
# [7] = system: HCVsg 1b(con1)-Rluc replicon; type: cell-based, hepatitis C virus genotype 1b
# scNS4A-NS3 Q526A = assay: NS3 depsipeptide cleavage; type: biochemical, hepatitis C virus genotype 1a
# scNS4A-NS3 H528A = assay: NS3 depsipeptide cleavage; type: biochemical, hepatitis C virus genotype 1a
# scNS4A-NS3 V524A = assay: NS3 depsipeptide cleavage; type: biochemical, hepatitis C virus genotype 1a; details: Val524 mutation
# [8] = biological target: recombinant full-length NS3 not fused to NS4A (Hepatitis C virus genotype 1a, UniProt P26664); assay: NS3 depsipeptide cleavage; type: biochemical; details: in the presence and absence of NS4A
# [9] = system: BHK DENV-Rluc cell viability
# [10] = system: HCVsg 1b(con1) replicon harboring R155K; details: 3 days
# [11] = system: HCVsg 1b(con1) replicon harboring the R155K and V36A mutations; details: 3 days
# [12] = Hepatitis C virus, Huh7.5, 72 h
structure (smiles),measurement,setting,value
CC(C)(C)OC(=O)N[C@H]1CCCCC/C=C\[C@@H]2C[C@@]2(C(=O)NS(=O)(=O)C2CC2)NC(=O)[C@@H]2C[C@@H](OC(=O)N3Cc4cccc(F)c4C3)CN2C1=O [Danoprevir],Inhibition of NS3 in an MBHA,[1]; full-length NS3,do not inhibit
same,EC50,[2]; [12],0.002 ± 0.0005 µM
same,CC50,Cell viability assay,100 µM
same,Volume under the synergy plot (difference from Bliss additivity),[3],17 μM^2%
same,Interaction with HPI (deviation from additive effects),[3],"Minor, insignificant synergy"
Cc1ccc2nc(-c3ccc4nc(-c5ccc(NC(=O)c6cc(C(F)(F)F)cc(C(F)(F)F)c6)cc5)sc4c3)sc2c1S(=O)(=O)O.N [HPI],Inhibition of NS3 in an MBHA,[1]; full-length NS3,inhibits full-length NS3 in an MBHA
same,IC50,"[1]; read-out: IC50, molecular beacon-based helicase assay, NS3-catalyzed DNA unwinding, normalized initial velocities",6 ± 2 µM
same,EC50,"[2]; Huh7.5 cells, 72 hours, relative to DMSO",15 ± 4 µM
same,Effect on viability of cells containing HCVsg 1b(con1) or HCVsg 2a(JFH1),Huh7.5 cell viability; concentrations up to 100 μM,did not affect the viability
same,CC50,"Huh7.5 cell viability; read-out: CC50 (concentration needed to reduce cell viability by 50%), Huh7.5 cells",> 100 µM
same,Activity against the HCVsg 2a(JFH1) replicon,HCVsg 2a(JFH1) replicon [4],little activity
same,Antiviral activity on subgenomic dengue virus replicon,[5],no antiviral activity
same,Antiviral activity in colony-formation assay,HCVsg 2a(JFH1) replicon [6],some antiviral activity
same,Change in sensitivity of the cell line to the compound after selection,[7]; incubated with HPI twice as long as 3 weeks (6 weeks),≤ 2 fold
same,Sensitivity of cells that became resistant to telaprevir,"[7]; telaprevir-selected cells, data not shown",retained sensitivity
same,Effect of substitution on ability to inhibit the NS3 protease,scNS4A-NS3 Q526A,neither the Q526A nor H528A substitutions influenced
same,Effect of substitution on ability to inhibit the NS3 protease,scNS4A-NS3 H528A,neither the Q526A nor H528A substitutions influenced
same,Effect of mutation on ability to inhibit NS3-catalyzed peptide cleavage,scNS4A-NS3 V524A,do not affect
same,Amount needed to inhibit NS3-catalyzed peptide cleavage versus scNS4A-NS3,[8],considerably more HPI was needed
same,"Effect on cell viability, dengue replicon cells",[9],no effect on cell viability
same,Activity on telaprevir-resistant replicon versus HCVsg 1b(con1) replicon,[10],equally active
same,Activity on telaprevir-resistant replicon versus HCVsg 1b(con1) replicon,[11],equally active
CCC[C@H](NC(=O)[C@@H]1[C@H]2CCC[C@H]2CN1C(=O)[C@@H](NC(=O)[C@@H](NC(=O)c1cnccn1)C1CCCCC1)C(C)(C)C)C(=O)C(=O)NC1CC1 [Telaprevir],Inhibition of NS3 in an MBHA,[1],do not inhibit
same,EC50,[2]; [12],0.81 ± 0.4 µM
same,CC50,Cell viability assay; replicon-bearing Huh7.5 cells,45 ± 4 µM
same,Sensitivity of cells that were incubated with HPI,"[7]; HPI-selected cells, data not shown",retained sensitivity
same,Resistance after incubation with the compound,[7]; incubated with telaprevir for 3 weeks,became resistant
same,Interaction with HPI (deviation from additive effects),[3],no significant deviations from additive effects
C=C[C@@H]1C[C@]1(NC(=O)[C@@H]1C[C@@H]2CN1C(=O)[C@H](C(C)(C)C)NC(=O)O[C@@H]1C[C@H]1CCCCCc1nc3ccc(OC)cc3nc1O2)C(=O)NS(=O)(=O)C1CC1 [Grazoprevir],EC50,[2]; [12],0.00076 ± 0.00013 µM
same,CC50,Cell viability assay; replicon-bearing Huh7.5 cells,54 ± 5 µM
same,Volume under the synergy plot (difference from Bliss additivity),[3],101 μM^2%
CC(C)(C)NC(=O)N[C@H](C(=O)N1C[C@H]2[C@@H]([C@H]1C(=O)NC(CC1CCC1)C(=O)C(N)=O)C2(C)C)C(C)(C)C (some centres unmarked) [Boceprevir],Inhibition of NS3 in an MBHA,[1],do not inhibit
same,EC50,[2]; [12],0.64 ± 0.1 µM
same,CC50,Cell viability assay; replicon-bearing Huh7.5 cells,> 100 µM
same,Interaction with HPI (deviation from additive effects),[3],no significant deviations from additive effects
